Laboratory results as given in patent US20040142317A1, “Use of amino acid transporter atbo,+ as a delivery system for drugs and prodrugs” (priority 2003, published 2004).
Where “and” joins values, the source holds several entries; their conditions need not be identical. Equal values may be shown once.

Experiments:
mouse ATB^0,+ [1] = biological target: T1, mouse ATB^0,+ (Mus musculus, UniProt Q9JMA9); details: for Current in X. laevis oocytes (nA), D-isomer: D-amino acid 1 mM; for Current in X. laevis oocytes (nA), D-isomer / Current in X. laevis oocytes (nA), L-isomer: NaCl pH 7.5; for Current in X. laevis oocytes (nA), L-isomer: L-amino acid 1 mM; for Current in X. laevis oocytes / inward current in the absence of Cl− (sodium gluconate) / inward current in the absence of Na+ (NMDG chloride): compound 1 mM; for Current in X. laevis oocytes: NaCl medium pH 7.5, voltage clamp; for K0.5 (concentration inducing half-maximal current; Michaelis-Menten constant): oocytes, membrane potential −50 mV
T1 sequence (Q9JMA9 1-638): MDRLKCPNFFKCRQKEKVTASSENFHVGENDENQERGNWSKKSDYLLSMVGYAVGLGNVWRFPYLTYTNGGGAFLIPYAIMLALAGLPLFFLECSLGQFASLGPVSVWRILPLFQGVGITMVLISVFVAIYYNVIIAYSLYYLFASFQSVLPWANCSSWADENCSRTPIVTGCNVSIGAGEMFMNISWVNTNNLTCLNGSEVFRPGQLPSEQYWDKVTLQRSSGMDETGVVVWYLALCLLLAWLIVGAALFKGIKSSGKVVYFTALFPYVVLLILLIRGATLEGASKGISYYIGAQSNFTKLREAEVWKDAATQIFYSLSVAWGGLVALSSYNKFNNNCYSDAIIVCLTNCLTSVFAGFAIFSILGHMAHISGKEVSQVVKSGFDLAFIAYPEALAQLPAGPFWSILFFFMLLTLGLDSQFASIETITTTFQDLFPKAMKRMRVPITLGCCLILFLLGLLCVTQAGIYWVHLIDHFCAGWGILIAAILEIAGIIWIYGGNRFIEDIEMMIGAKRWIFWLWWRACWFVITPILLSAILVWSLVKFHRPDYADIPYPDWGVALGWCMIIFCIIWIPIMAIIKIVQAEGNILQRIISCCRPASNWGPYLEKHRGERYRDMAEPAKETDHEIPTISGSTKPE

mouse ATB^0,+ [2] = biological target: T1, mouse ATB^0,+; assay: Transport of radiolabeled substrates in HRPE cells expressing cloned mouse ATB0,+; assay type: cell-based; details: HRPE cells
mouse ATB^0,+ [3] = biological target: T1, mouse ATB^0,+; assay: Inhibition of ATB0,+-specific [3H]-L-NNA transport by amino acids in HRPE cells; assay type: cell-based; details: amino acids 5 mM; [3H]-L-NNA 10 μM
mouse ATB^0,+ [4] = biological target: T1, mouse ATB^0,+
mouse ATB^0,+ [5] = biological target: T1, mouse ATB^0,+; remark: listed apart in the source
ATB^0 = biological target: T2, ATB^0 (Homo sapiens, UniProt Q15758); assay: cell-based
T2 sequence (Q15758 1-541): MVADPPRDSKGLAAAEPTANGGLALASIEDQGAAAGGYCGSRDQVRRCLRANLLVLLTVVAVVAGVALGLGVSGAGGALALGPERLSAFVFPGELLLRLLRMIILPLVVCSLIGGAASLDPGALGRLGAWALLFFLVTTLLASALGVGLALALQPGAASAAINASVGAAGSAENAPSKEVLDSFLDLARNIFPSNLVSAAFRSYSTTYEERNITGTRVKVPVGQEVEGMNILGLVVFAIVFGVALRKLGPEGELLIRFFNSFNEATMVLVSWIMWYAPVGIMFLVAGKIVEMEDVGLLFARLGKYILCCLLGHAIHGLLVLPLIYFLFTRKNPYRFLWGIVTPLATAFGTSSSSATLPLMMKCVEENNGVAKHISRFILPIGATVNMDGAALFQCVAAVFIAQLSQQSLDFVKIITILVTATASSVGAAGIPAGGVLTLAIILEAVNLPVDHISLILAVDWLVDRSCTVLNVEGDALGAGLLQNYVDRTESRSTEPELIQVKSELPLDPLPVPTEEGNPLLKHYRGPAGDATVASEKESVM

**Q.** With `CC(C)[C@H](N)C(=O)O` [D-Valine, Valine] as the molecule, how does the “Current in X. laevis oocytes (nA), D-isomer” value (“Current … D-isomer” below) (mouse ATB^0,+ [1]) read?
**A.** Its value is 4 ± 3 nA.

**Q.** What does the source list for `NCCCC[C@H](N)C(=O)O` [Lysine]?
**A.** Current in X. laevis oocytes (nA), L-isomer (mouse ATB^0,+ [1]): 321 ± 34 nA; Current in X. laevis oocytes (mouse ATB^0,+ [1]): 545 ± 95 nA

**Q.** How did the “Hill coefficient for Na+ activation of substrate transport” value (mouse ATB^0,+ [2]) turn out when `NCC(=O)O` [Glycine] was run?
**A.** The value was 2.0±0.1.

**Q.** What about the “K0.5 for Cl− in substrate transport” value (mouse ATB^0,+ [2]) of the same molecule?
**A.** Its value is 18 ± 8 mM.

**Q.** What about the “K0.5 for Na+ in substrate transport” value (mouse ATB^0,+ [2]) of the same molecule?
**A.** The value was 25 ± 1 mM.

**Q.** And the “Michaelis-Menten constant (Kt) of transport via mouse ATB^0,+” value (mouse ATB^0,+ [2])?
**A.** Its value is 210 ± 18 µM.

**Q.** What about the “transport in ATB^0,+ cDNA-transfected cells compared to vector-transfected cells” value (mouse ATB^0,+ [2]; radiolabeled substrate) of the same molecule?
**A.** The value was 38 fold and 30 fold.

**Q.** What about the “inhibition of ATB^0,+-specific L-NNA transport” value (mouse ATB^0,+ [3]) of the same molecule?
**A.** The value was “inhibition”.

**Q.** For `N=C(N)NOCC[C@H](N)C(=O)O` [L-Canavanine], which activity (mouse ATB^0,+ [4]) is on record?
**A.** Its activity is 24%.

**Q.** And the inhibition (mouse ATB^0,+ [4])?
**A.** The inhibition was 75%.

**Q.** And the “Current in X. laevis oocytes” value (mouse ATB^0,+ [1])?
**A.** The value was 269 ± 73 nA.

**Q.** What does the source list for `N=C(N)NCCC[C@H](N)C(=O)O` [Arginine]?
**A.** inhibition of ATB^0,+-specific L-NNA transport (mouse ATB^0,+ [3]): inhibition; activity (mouse ATB^0,+ [4]): 30%; Current in X. laevis oocytes (nA), L-isomer (mouse ATB^0,+ [1]): 339 ± 35 nA; inward current in the absence of Cl− (sodium gluconate) (mouse ATB^0,+ [1]): No measurable current; inward current in the absence of Na+ (NMDG chloride) (mouse ATB^0,+ [1]): No measurable current; Current in X. laevis oocytes (mouse ATB^0,+ [1]): 382 ± 57 nA

**Q.** For `NCCCC[C@H](N)C(=O)O` [D-Lysine, Lysine], which “Current … D-isomer” value (mouse ATB^0,+ [1]) is on record?
**A.** Its value is 9 ± 9 nA.

**Q.** How did the “Current in X. laevis oocytes” value (mouse ATB^0,+ [1]) turn out when `CC(=N)NCCC[C@H](N)C(=O)O` [L-NIO] was run?
**A.** The value was 71 ± 16 nA.

**Q.** And the “K0.5 (concentration inducing half-maximal current; Michaelis-Menten constant)” value (mouse ATB^0,+ [1])?
**A.** Its value is 2.24 ± 0.35 mM.

**Q.** Which “inward current in the absence of Cl− (sodium gluconate)” value (mouse ATB^0,+ [1]) does the source give for `CC(=N)NCCCC[C@H](N)C(=O)O` [L-NIL] here?
**A.** The value was about 10 nA.

**Q.** And the “inward current in the absence of Na+ (NMDG chloride)” value (mouse ATB^0,+ [1])?
**A.** The value was “no measurable inward current”.

**Q.** And the “Current in X. laevis oocytes” value (mouse ATB^0,+ [1])?
**A.** Its value is 89 ± 18 nA.

**Q.** What about the “K0.5 (concentration inducing half-maximal current; Michaelis-Menten constant)” value (mouse ATB^0,+ [1]) of the same molecule?
**A.** The value was 2.72 ± 0.29 mM.

**Q.** With `NCCCC(=O)O` [γ-Aminobutyrate, γ-aminobutyrate] as the molecule, how does the “effect on ATB^0,+-mediated glycine transport (in words)” value (mouse ATB^0,+ [5]; glycine 10 μM, HRPE cells) read?
**A.** Its value is “little or no effect”.

**Q.** With `C[C@@H](N)C(=O)O` [D-Alanine, D-alanine] as the molecule, how does the “Current … D-isomer” value (mouse ATB^0,+ [1]) read?
**A.** Its value is 402 ± 39 nA.

**Q.** With `N[C@H](Cc1c[nH]c2ccccc12)C(=O)O` [D-Tryptophan, D-tryptophan] as the molecule, how does the “Current … D-isomer” value (mouse ATB^0,+ [1]) read?
**A.** Its value is 157 ± 23 nA.

**Q.** Which “Current in X. laevis oocytes (nA), L-isomer” value (“Current … L-isomer” below) (mouse ATB^0,+ [1]) does the source give for `N[C@@H](Cc1ccccc1)C(=O)O` [Phenylalanine] here?
**A.** Its value is 275 ± 58 nA.

**Q.** What about the Ki (mouse ATB^0,+ [5]) of the same molecule?
**A.** Its Ki is 68.6 ± 2.4 µM.

**Q.** What about the Ki (ATB^0) of the same molecule?
**A.** Its Ki is 4230 ± 999 µM.

**Q.** How did the “Current … D-isomer” value (mouse ATB^0,+ [1]) turn out when `CSCC[C@@H](N)C(=O)O` [D-Methionine, D-methionine] was run?
**A.** The value was 213 ± 15 nA.

**Q.** For `C[C@@H](O)[C@H](N)C(=O)O` [Threonine], which “Current … L-isomer” value (mouse ATB^0,+ [1]) is on record?
**A.** Its value is 233 ± 12 nA.

**Q.** How did the “Current … L-isomer” value (mouse ATB^0,+ [1]) turn out when `NC(=O)CC[C@H](N)C(=O)O` [Glutamine, L-Glutamine] was run?
**A.** The value was 453 ± 53 nA.

**Q.** Which “Current … L-isomer” value (mouse ATB^0,+ [1]) does the source give for `CC(C)[C@H](N)C(=O)O` [L-Valine, Valine] here?
**A.** Its value is 310 ± 24 nA.

**Q.** For `NC(=O)C[C@H](N)C(=O)O` [D-Asparagine, Asparagine], which “Current … D-isomer” value (mouse ATB^0,+ [1]) is on record?
**A.** Its value is 3 ± 2 nA.

**Q.** How did the “Current in X. laevis oocytes” value (mouse ATB^0,+ [1]) turn out when `NC(=S)NCCC[C@H](N)C(=O)O` [L-TC] was run?
**A.** Its value is 497 ± 104 nA.

**Q.** With `CC(C)C[C@@H](N)C(=O)O` [D-Leucine, D-leucine] as the molecule, how does the “Current … D-isomer” value (mouse ATB^0,+ [1]) read?
**A.** The value was 161 ± 25 nA.

**Q.** For `CNC(C)(C)C(=O)O` [MeAIB], which “inhibition of ATB^0,+-specific L-NNA transport” value (mouse ATB^0,+ [3]) is on record?
**A.** The value was “did not inhibit”.

**Q.** How did the activity (mouse ATB^0,+ [4]) turn out when `CNC(=N)NCCC[C@H](N)C(=O)O` [L-NMMA] was run?
**A.** The activity was 36%.

**Q.** And the “Current in X. laevis oocytes” value (mouse ATB^0,+ [1])?
**A.** Its value is 411 ± 76 nA.

**Q.** `N[C@@H](Cc1c[nH]c2ccccc12)C(=O)O` [Tryptophan] was tested. Which “Current … L-isomer” value (mouse ATB^0,+ [1]) did it give?
**A.** Its value is 112 ± 4 nA.

**Q.** With `CC(C)[C@H](N)C(=O)OCCOCn1cnc2c(=O)[nH]c(N)nc21` [valacyclovir, L-valine α-ester of acyclovir] as the molecule, how does the “transport in ATB^0,+-expressing cells versus vector-transfected cells (in words)” value (mouse ATB^0,+ [2]; [14C]phenylglycine 10 μM or [8-3H]-valacyclovir 1.25 μM) read?
**A.** Its value is “three times higher”.
